Tests used:
[1] = tested on: sodium channel; experiment: Guanidine influx assay (14C-guanidine radiotracer flux, in vitro); format: cell-based, human or rat; conditions: guanidine influx assay using a known cell line that expresses a sodium channel
How it was run: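 Human or rat sodium channels stably expressed in endogenous or recombinant cells, plated ~100,000 cells/well for 20-24 h at 37 °C. Cells were treated with test agent in low-sodium choline HEPES saline plus aconitine and 14C-guanidine at ambient temperature, washed, and counted by scintillation; IC50 from 4-parameter logistic fit.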

[2] = tested on: inactivated state of the channel of interest (sodium channel); experiment: Electrophysiological assay (whole cell voltage clamp, in vitro); format: cell-based; conditions: affinity for the inactivated state of the channel of interest
Protocol: Cells expressing the channel of interest are cultured in DMEM growth media (Gibco) with 0.5 mg/mL G418, +/−1% PSG, and 10% heat-inactivated fetal bovine serum at 37° C. and 5% CO2. For electrophysiological recordings, cells are plated on 10 mm dishes.
Whole cell recordings are examined by established methods of whole cell voltage clamp (Bean et al., op. cit.) using an Axopatch 200B amplifier and Clampex software (Axon Instruments, Union City, Calif.). All experiments are performed at ambient temperature. Electrodes are fire-polished to resistances of 2-4 Mohms Voltage errors and capacitance artifacts are minimized by series resistance compensation and capacitance compensation, respectively. Data are acquired at 40 kHz and filtered at 5 kHz. The external (bath) solution consists of: NaCl (140 mM), KCl (5 mM), CaCl2 (2 mM), MgCl2 (1 mM), HEPES (10 mM) at pH 7.4. The internal (pipette) solution consists of (in mM): NaCl (5), CaCl2 (0.1), MgCl2 (2), CsCl (10), CsF (120), HEPES (10), EGTA (10), at pH 7.2.
To estimate the steady-state affinity of compounds for the resting and inactivated state of the channel (Kr and Ki, respectively), 12.5 ms test pulses to depolarizing voltages from −60 to +90 mV from a holding potential of −120 m V is used to construct current-voltage relationships (I-V curves). A voltage near the peak of the IV-curve (−30 to 0 m V) is used as the test pulse throughout the remainder of the experiment. Steady-state inactivation (availability) curves are then constructed by measuring the current activated during a 8.75 ms test pulse following 1 second conditioning pulses to potentials ranging from −120 to −10 m V.
The steady-state voltage-dependence of binding of a compound to a sodium channel is determined by measuring the blockage of the ionic current at two holding potentials. Binding to rested-state channels is determined by using a holding potential of −120 mV, so that maximal availability is achieved. Binding to inactivated-state channels is evaluated at a holding potential such that only 10% of the channels are available to open. The membrane potential is held at this voltage for at least 10 seconds so that drug binding can equilibrate.
The apparent dissociation constant at each voltage is calculated with the equation:
[formula] where Kd is the dissociation constant (either Kr or Ki), and [Drug] is the concentration of the test compound.
The Example numbers provided in Table 3 correspond to the Examples herein: […]

[3] = biological target: CYP3A4 (Homo sapiens, UniProt P08684); experiment: Cytochrome P450 (CYP450) Inhibition Assay, CYP3A4 (Vivid fluorescence, BOMCC substrate); conditions: human, P450 Baculosomes (recombinant CYP3A4), probe BOMCC (Vivid substrate)
Chain of CYP3A4 (P08684 whole entry): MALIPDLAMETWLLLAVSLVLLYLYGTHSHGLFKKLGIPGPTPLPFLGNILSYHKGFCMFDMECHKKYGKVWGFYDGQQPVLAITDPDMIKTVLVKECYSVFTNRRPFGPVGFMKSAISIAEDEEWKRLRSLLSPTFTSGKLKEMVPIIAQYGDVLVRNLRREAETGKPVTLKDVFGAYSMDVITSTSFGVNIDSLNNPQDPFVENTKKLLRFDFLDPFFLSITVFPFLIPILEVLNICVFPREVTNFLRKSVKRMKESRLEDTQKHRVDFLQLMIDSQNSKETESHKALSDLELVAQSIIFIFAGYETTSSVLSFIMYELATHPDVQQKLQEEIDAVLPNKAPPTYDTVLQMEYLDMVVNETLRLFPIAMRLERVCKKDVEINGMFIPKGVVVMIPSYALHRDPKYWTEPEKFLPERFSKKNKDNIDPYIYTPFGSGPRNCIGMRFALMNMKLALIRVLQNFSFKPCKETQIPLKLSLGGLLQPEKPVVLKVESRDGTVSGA

| SMILES | IC50 ([1]; activity level class) | inhibition at 10 µM [3] | IC50 [1] | Ki [2] |
| --- | --- | --- | --- | --- |
| O=C1N(Cc2ncccc2C(F)(F)F)c2ccccc2[C@]12COc1cc3c(cc12)OCCO3 [Example 1.12, (8S)-1′-{[3-(trifluoromethyl)pyridin-2-yl]methyl}-2,3-dihydrospiro[furo[2,3-g][1,4]benzodioxine-8,3′-indol]-2′(1′H)-one] | 1 to 100 nM | < 50% |  | < 300 nM |
| CN1C(=O)C2(COc3cc4c(cc32)OC(F)(F)O4)c2ccccc21 (stereo not shown) [Example 2.35] | 1000 to 10000 nM | > 50% |  | > 300 nM |
| O=C1N(Cc2ncccc2C(F)(F)F)c2ccccc2C12OCOc1cc3c(cc12)OCCO3 (stereo not shown) [Example 2.54, 1′-{[3-(trifluoromethyl)pyridin-2-yl]methyl}-7,8-dihyrdospiro[1,4-dioxino[2,3-g][1,3]benzodioxine-4,3′-indol]-2′(1′H)-one] |  | < 50% |  | > 300 nM |
| O=C1N(CC2CCCCO2)c2ccccc2C12COc1cc3c(cc12)CCO3 (stereo not shown) [Example 4, 1′-(tetrahydro-2H-pyran-2-ylmethyl)-5,6-dihydrospiro[benzo[1,2-b:5,4-b′]difuran-3,3′-indol]-2′(1′H)-one] | 1 to 100 nM | < 50% |  | > 300 nM |
| O=C1N(C[C@H]2CCCO2)c2ccccc2C12COc1cc3c(cc12)CCO3 (stereo partly drawn) [Example 4.3, 1′-[(2R)-tetrahydrofuran-2-ylmethyl]-5,6-dihydrospiro[benzo[1,2-b:5,4-b′]difuran-3,3′-indol]-2′(1′H)-one] | 1 to 100 nM | < 50% |  | > 300 nM |
| O=C1N(CC2CCOCC2)c2ccccc2C12COc1cc3c(cc12)CCO3 (stereo not shown) [Example 4.6, 1′-(tetrahydro-2H-pyran-4-ylmethyl)-5,6-dihydrospiro[benzo[1,2-b:5,4-b′]difuran-3,3′-indol]-2′(1′H)-one] | 100 to 1000 nM | < 50% |  | > 300 nM |
| O=C1N(CC2COCCO2)c2ccccc2C12COc1cc3c(cc12)CCO3 (stereo not shown) [Example 4.8, 1′-(1,4-dioxan-2-ylmethyl)-5,6-dihydrospiro[benzo[1,2-b:5,4-b′]difuran-3,3′-indol]-2′(1′H)-one] | 1 to 100 nM | < 50% |  | > 300 nM |
| O=C1N(CC2CCCOC2)c2ccccc2C12COc1cc3c(cc12)CCO3 (stereo not shown) [Example 4.10, 1′-(tetrahydro-2H-pyran-3-ylmethyl)-5,6-dihydrospiro[benzo[1,2-b:5,4-b′]difuran-3,3′-indol]-2′(1′H)-one] | 1 to 100 nM | < 50% |  | > 300 nM |
| O=C1N(CC2CCOC2)c2ccccc2C12COc1cc3c(cc12)CCO3 (stereo not shown) [Example 4.16, 1′-(tetrahydrofuran-3-ylmethyl)-5,6-dihydrospiro[benzo[1,2-b:5,4-b′]difuran-3,3′-indol]-2′(1′H)-one] | 100 to 1000 nM | < 50% |  | > 300 nM |
| O=C1N(CC2CCO2)c2ccccc2C12COc1cc3c(cc12)CCO3 (stereo not shown) [Example 4.20, 1′-(oxetan-2-ylmethyl)-5,6-dihydrospiro[benzo[1,2-b:5,4-b′]difuran-3,3′-indol]-2′(1′H)-one] | 100 to 1000 nM | < 50% |  | > 300 nM |
| COc1ccc2c(c1)OCC21C(=O)N(C[C@H]2CCCO2)c2ccccc21 (stereo partly drawn) [Example 4.68, 6-methoxy-1′-[(2R)-tetrahydrofuran-2-ylmethyl]spiro[1-benzofuran-3,3′-indol]-2′(1′H)-one] | 100 to 1000 nM | < 50% |  | > 300 nM |
| O=C1N(Cc2ccc(C(F)(F)F)o2)c2c(Cl)cccc2C12COc1cc3c(cc12)CCO3 (stereo not shown) [Example 5.1, 7′-chloro-1′-((5-(trifluoromethyl)furan-2-yl)methyl)-5,6-dihydro-2H-spiro[benzofuro[6,5-b]furan-3,3′-indolin]-2′-one] | 100 to 1000 nM | > 50% |  | < 300 nM |
| CCCCCN1C(=O)[C@]2(COc3cc4c(cc32)OCCO4)c2ccccc21 [Example 7.4, (R)-1′-pentyl-2,3-dihydrospiro[furo[2,3-g][1,4]benzodioxine-8,3′-indol]-2′(1′H)-one] |  | > 50% |  | > 300 nM |
| COCCCCN1C(=O)C2(COc3cc4c(cc32)OCCO4)c2ccccc21 (stereo not shown) [Example 7.8] |  | < 50% |  | < 300 nM |
| O=C1N(Cc2ncccc2C(F)(F)F)c2ccccc2[C@@]12COc1cc3c(cc12)OCCO3 [Example 7.15] | 100 to 1000 nM | < 50% |  | > 300 nM |
| CN1C(=O)COc2cc3c(cc21)OCC31C(=O)N(C[C@H]2CCCO2)c2ccccc21 (stereo partly drawn) [Example 9.23, 4-methyl-1′-(((R)-tetrahydrofuran-2-yl)methyl)-4,7-dihydrospiro[benzofuro[5,6-b][1,4]oxazine-8,3′-indoline]-2′,3(2H)-dione] | 1 to 100 nM | < 50% |  | > 300 nM |
| O=C1N(C[C@H]2CCCO2)c2ccccc2[C@]12COc1cc3c(cc12)CCO3 [Example 11.66, (3S)-1′-[(2R)-tetrahydrofuran-2-ylmethyl]-5,6-dihydrospiro[benzo[1,2-b:5,4-b′]difuran-3,3′-indol]-2′(1′H)-one] |  |  | 1 to 100 nM | > 300 nM |
| CN(C)c1ccc(-c2cccc3c2C2(COc4cc5c(cc42)CCO5)C(=O)N3C[C@H]2CCCO2)cn1 (stereo partly drawn) [Example 16, 4′-[6-(dimethylamino)pyridin-3-yl]-1′-[(2R)-tetrahydrofuran-2-ylmethyl]-5,6-dihydrospiro[benzo[1,2-b:5,4-b′]difuran-3,3′-indol]-2′(1′H)-one] |  | > 50% | 100 to 1000 nM | > 300 nM |

More lines, main results first:

| IC50 ([1]; activity level class) | inhibition at 10 µM [3] | IC50 [1] | SMILES | Ki [2] |
| --- | --- | --- | --- | --- |
|  | < 50% | 1 to 100 nM | COc1cc2c(cc1C)[C@@]1(CO2)C(=O)N(CN2CCN(C)CC2)c2ccccc21 [Example 11.64, (3S)-6-methoxy-5-methyl-1′-[(4-methylpiperazin-1-yl)methyl]spiro[1-benzofuran-3,3′-indol]-2′(1′H)-one hydrogen chloride] | > 300 nM |
|  | < 50% | 1000 to 10000 nM | O=C1N(C[C@H]2CCCO2)c2ccccc2[C@@]12COc1cc3c(cc12)CCO3 [Example 11.67, (3R)-1′-[(2R)-tetrahydrofuran-2-ylmethyl]-5,6-dihydrospiro[benzo[1,2-b:5,4-b′]difuran-3,3′-indol]-2′(1′H)-one] | > 300 nM |
|  | < 50% | 1000 to 10000 nM | O=C1N(C[C@@H]2CCCO2)c2ccccc2[C@]12COc1cc3c(cc12)CCO3 [Example 11.69, (3S)-1′-[(2S)-tetrahydrofuran-2-ylmethyl]-5,6-dihydrospiro[benzo[1,2-b:5,4-b′]difuran-3,3′-indol]-2′(1′H)-one] | > 300 nM |
|  | < 50% | 100 to 1000 nM | O=C1N(C[C@H]2CCCO2)c2cccc(-c3ccc(Oc4ccccc4)cc3)c2C12COc1cc3c(cc12)CCO3 (stereo partly drawn) [Example 16.6, 4′-(4-phenoxyphenyl)-1′-[(2R)-tetrahydrofuran-2-ylmethyl]-5,6-dihydrospiro[benzo[1,2-b:5,4-b′]difuran-3,3′-indol]-2′(1′H)-one] | < 300 nM |
|  | < 50% | 100 to 1000 nM | CC(C)COc1ccc(-c2cccc3c2C2(COc4cc5c(cc42)CCO5)C(=O)N3C[C@H]2CCCO2)cc1 (stereo partly drawn) [Example 16.7, 4′-[4-(2-methylpropoxy)phenyl]-1′-[(2R)-tetrahydrofuran-2-ylmethyl]-5,6-dihydrospiro[benzo[1,2-b:5,4-b′]difuran-3,3′-indol]-2′(1′H)-one] | < 300 nM |
|  | > 50% |  | CN1C(=O)C2(COc3cc4c(cc32)OCCO4)c2c(Oc3ccccc3)cccc21 (stereo not shown) [Example 16.80, 1′-methyl-4-phenoxy-2,3-dihydrospiro[furo[2,3-g][1,4]benzodioxine-8,3′-indol]-2′(1′H)-one] | < 300 nM |

From patent US8263606B2 (Xenon Pharmaceuticals Inc., priority 2008, dated 2012)
